Test results from patent US10669545B2, “Tumor cell malignant transformation suppressor and anti-tumor agent” (JAPAN SCIENCE AND TECHNOLOGY AGENCY, priority 2015, dated 2020).

How the values were obtained:
Assay type in all cases: cell-based, human
[1] = tested on: A375 cells; test: Cell morphology after siRNA transfection, A375 cells; conditions: not shown
[2] = tested on: vemR-3 cells; test: Annexin V-positive cells, vemR-3 cells; conditions: vs siNeg
Method: (§1) The percentage of Annexin V-positive cells was measured as follows. First, FITC labeled Annexin V (manufactured by MBL, Nagoya, Japan) and Hoechst33342 were added to each cell and incubated for 40 minutes. Next, a stained state of the incubated cells was analyzed by using DAPI filter and FITC filter of an imaging cytometer, “In Cell Analyzer 2000” (manufactured by GE healthcare). Percentage (%) of […] was determined by In Cell Analyzer Workstation 3.7 (manufactured by GE healthcare). The statistical difference was determined by the Tukey's multiple comparisons of means test (**: P<0.01, *: P<0.05).
A percentage of apoptotic cells in the obtained cells was detected by using FITC labeled Annexin V (manufactured by MBL, Nagoya, Japan) in the same manner as Example 7.

[3] = tested on: phosphorylated FAK (pFAK); test: Western blotting of phosphorylated FAK; conditions: siRNA-transfected cells vs siNeg#1; not shown
Source text: Because phosphorylation of focal adhesion kinase (FAK), which is activated at Focal adhesion, has been associated with melanoma malignancy (refer to NPL 19), FAK change by ZIC5 was examined. Furthermore, focusing on Integrin, alpha 6 (ITGA6) and platelet-derived growth factor D (PDGFD) among the Focal adhesion-related genes in the altered genes by Zic5 knockdown, change in cells was examined. Specifically, a level of phosphorylated FAK (pFAK), total FAK (FAK), ITGA6, pro-PDGFD, and β-actin in A375 cells transfected with siZIC5 or siNeg was assessed by western blotting. Western blotting was performed in the same manner as above except that anti-pFAK antibody (manufactured by Signalway Antibody), anti-FAK antibody (manufactured by Acris), anti-β-actin antibody (manufactured by Sigma), anti-ITGA6 antibody (manufactured by GeneTex), and anti-PDGFD antibody (manufactured by Santa Cruz) were used.

[4] = tested on: phosphorylated ERK1/2 (Thr202/204) (pERK); test: Western blotting of phosphorylated ERK1/2; conditions: vemR-3 cells; PLX4032 or DMSO treatment; siRNA vs siNeg
Method: Western blotting was performed in the same manner as above except that anti-pAKT antibody (manufactured by Cell Signaling), anti-AKT antibody (manufactured by Cell Signaling), anti-pERK antibody (manufactured by Cell Signaling), anti-ERK antibody (manufactured by Cell Signaling), and anti-β-actin antibody (manufactured by Sigma) were used.
vemR-1 to 3 cells and HT144 cells were treated with DMSO or PLX4032 solution (which was dissolved in DMSO to become 5 μM) for 48 hours, and the level of pAKT, AKT, pERK, ERK, and β-actin of these cells was assessed by western blotting in the same manner as Example 8.
A375 cells were treated in a medium in which a concentration of a FAK inhibitor I (manufactured by Calbiochem) was 0, 1, 2.5, or 5 μM for 24 hours, and the level of ZIC5, pro-PDGFD, pERK, and β-actin was measured by western blotting. Western blotting was performed in the same manner as above except that anti-ZIC5 antibody (manufactured by Aviva systems biology), anti-PDGFD antibody (manufactured by Santa Cruz), anti-pERK antibody (manufactured by Cell Signaling), and anti-β-actin antibody (manufactured by Sigma) were used.
A375 cells were treated in a medium in which a concentration of Interleukin-6 (IL-6) (manufactured by Novus Biologicals) was 0, 10, or 20 ng/mL for 24 hours, and then western blotting was performed to assess the level of ZIC5, pro-PDGFD, pSTAT3, STAT3, and GAPDH. […]

[5] = tested on: DU145 cells; test: Annexin V-positive cells, DU145 cells; conditions: siRNA then docetaxel 5 nM for 24 hours
Method: as §1

[6] = tested on: DU145 cells; test: Cell number count, DU145 cells; conditions: 0, 2, or 3 days after transfection
Source text: First, DU145 cells were transfected with siZIC5#1, siZIC5#2, siNeg#1, or siNeg#2 described in Table 2 in the same manner as Example 1, and the number of cells 0, 2, or 3 days after transfection was counted. The result of calculating a relative cell number of each cell (the number of cells on 0th day after transfection (before transfection) was set to 1) (n=3) is shown in FIG. 44.
The result of calculating a relative cell number of each cell (the number of cells on 0th day after transfection (before transfection) was set to 1) (n=3) is shown in FIG. 47.

## siPDGFD#1: siRNA for PDGFD gene; targeting sequence CAGGAATTACTCGGTCAATAT (SEQ. NO. 28) (listed as DNA, chemistry not given here)
[1]
  morphological change of cells after siRNA transfection: morphological change occurred
[2]
  percentage of Annexin V-positive cells: significantly increased
[3]
  FAK phosphorylation (pFAK level): reduced FAK phosphorylation
[4]
  pERK level (inactivation of ERK): the pERK level decreased
[5]
  apoptosis induced by docetaxel (percentage of Annexin V-positive cells): significantly increased
[6]
  relative cell number (0th day set to 1), cell proliferation rate: decreased
